Values of other authors in patent US20110201657A1, “AMIDE SUBSTITUTED INDAZOLE AND BENZOTRIAZOLE DERIVATIVES AS POLY(ADP-RIBOSE)POLYMERASE (PARP) INHIBITORS” (Istituto di Ricerche di Biologia Molecolare P. Angeletti SpA, priority 2006, published 2011).

System: infarct size in the heart
Details: rabbits

Structure (SMILES)	reduction in infarct size (single injection 1 mg/kg)	reduction in infarct size in the heart (single injection 10 mg/kg, one minute before occlusion or before reperfusion)
Oc1cccc2c(O)nccc12 [1,5-dihydroxyisoquinoline]	38-48%	
NC(=O)c1cccc(N)c1 [3-amino-benzamide]		32-42%
